# Assay results published in ChEMBL document CHEMBL1133608 (J Med Chem, 2000).
# Tests used:
# [1] = target: T1, D(2) dopamine receptor (Rattus norvegicus, UniProt P61169, S194A); assay: biochemical; type: cell-based, C6 glioma
# [2] = target: D(2) dopamine receptor (Rattus norvegicus, UniProt P61169); assay: biochemical; type: cell-based, C6 glioma
# [3] = target: T2, D(2) dopamine receptor (Rattus norvegicus, UniProt P61169, S197A); assay: biochemical; type: cell-based, C6 glioma
# [4] = target: T1, D(2) dopamine receptor; assay: biochemical; type: cell-based, C6 glioma; remark: listed apart in the source
# [5] = target: T2, D(2) dopamine receptor; assay: In vitro affinity at mutant D2 receptor (S197A) in C6 (glioma) cell membranes.; type: cell-based
# [6] = target: D(2) dopamine receptor (Rattus norvegicus, UniProt P61169, S193A); assay: In vitro affinity at mutant D2 receptor (S193A) in C6 (glioma) cell membranes.; type: cell-based
# [7] = target: T1, D(2) dopamine receptor; assay: In vitro affinity at mutant D2 receptor (S194A) in C6 (glioma) cell membranes.; type: cell-based
# T1 sequence (P61169 whole entry S194A): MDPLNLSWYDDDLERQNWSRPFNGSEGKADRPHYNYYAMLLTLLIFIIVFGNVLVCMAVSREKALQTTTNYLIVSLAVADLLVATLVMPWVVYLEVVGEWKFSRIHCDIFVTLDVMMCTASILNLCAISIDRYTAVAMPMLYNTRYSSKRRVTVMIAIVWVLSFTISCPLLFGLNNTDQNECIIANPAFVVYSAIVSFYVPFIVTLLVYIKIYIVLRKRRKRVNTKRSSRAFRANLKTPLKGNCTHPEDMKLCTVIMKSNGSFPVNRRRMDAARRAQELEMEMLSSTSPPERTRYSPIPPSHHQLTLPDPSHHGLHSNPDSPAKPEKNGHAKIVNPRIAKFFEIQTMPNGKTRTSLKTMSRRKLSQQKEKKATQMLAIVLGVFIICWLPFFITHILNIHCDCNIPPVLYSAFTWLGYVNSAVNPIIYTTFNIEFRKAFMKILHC
# T2 sequence (P61169 whole entry S197A): as the sequence (P61169 whole entry S194A) above, with A194S, S197A counted along it
# Sequence of D(2) dopamine receptor (Rattus norvegicus, UniProt P61169) (P61169 whole entry): as the sequence (P61169 whole entry S194A) above, with A194S counted along it
# Sequence of D(2) dopamine receptor (Rattus norvegicus, UniProt P61169, S193A) (P61169 whole entry S193A): as the sequence (P61169 whole entry S194A) above, with S193A, A194S counted along it
SMILES,Kd [1] [nM],Kd [2] [nM],Kd [3] [nM],Kd [4] [nM],Kd [5] [nM],Kd ([2]; c6 glioma) [nM],Kd [6] [nM],Kd [7] [nM]
CCN(CC)C(=O)N[C@H]1C=C2c3cccc4[nH]cc(c34)C[C@H]2N(C)C1 [LISURIDE],0.3,0.6,0.4,2.3,,,,
COc1cc(CCN)ccc1O,251000,94000,225000,88000,,,,
CC(C)C[C@H]1C(=O)N2CCC[C@H]2[C@]2(O)O[C@](NC(=O)[C@@H]3C=C4c5cccc6[nH]c(Br)c(c56)C[C@H]4N(C)C3)(C(C)C)C(=O)N12 [BROMOCRIPTINE],8,8,4,17,,,,
CN1C[C@H](C(N)=O)C=C2c3cccc4[nH]cc(c34)C[C@H]21,1.8,0.62,,,1,0.62,2.8,2.8
CCCN1Cc2c(C)cccc2[C@@H]2c3cc(O)c(O)cc3CC[C@H]21,1300,300,,,700,300,1300,400
N[C@@H]1CCc2cc(O)c(O)cc2C1,17000,210,120,450,,,,
